One experiment relates to CD55 mRNA. The experiment is described as follows: CD55 mRNA expression of hMSCs by RT-qPCR. Particulars: for CD55 mRNA expression of hMSCs compared to untreated control: AT-, BM-, UC-hMSC, Erlotinib 2, 5, 10 μM or atorvastatin 2, 5, 25, 50 μM, within 24 hours, normalized to GADPH; for Dose dependence of CD55 upregulation in hMSCs: Erlotinib 2-10 μM, atorvastatin 2-50 μM; for Expression of CD55 on hMSC vs untreated control (mRNA or protein level not specified): drug treatment of hMSC. In kind it is cell-based, human. On the procedure: FIG. 9 is a bar graph of CD55 mRNA expression of hMSCs in presence of atorvastatin, showing % Normalized to GADPH (0-25) for each MSC group Adipose Tissue (AT; red), Bone Marrow (BM; blue), and Umbilical Cord (UC; green), respectively, in the presence of 0 μM (untreated control) 2 μM, 5 μM, 25 μM, and 50 μM atorvastatin.
FIG. 10 is a bar graph of CD55 mRNA expression of hMSCs in presence of Erlotinib, showing % Normalized to GADPH (0-25) for each MSC group Adipose Tissue (AT; red), Bone Marrow (BM; blue), and Umbilical Cord (UC; green), respectively, in the presence of 0 μM (untreated control) 2 μM, 5 μM, and 10 μM Erlotinib.
(§1) The expression of CD55 in hMSC was then validated by RT-qPCR and flow cytometry.
hMSC were treated with Erlotinib, which is an EGFR inhibitor, on different dosages within 24 hours, […]
A general note: Quantitative PCR measures a nucleic acid by following its amplification.

Another experiment has as its system CD55 surface protein. In words: CD55 surface protein expression on hMSCs by flow cytometry. The class given is cell-based, human. The settings on record: AT-, BM-, UC-hMSC, 5 μM Atr or 5 μM Erl, 24 hr. The procedure:
FIG. 11 is a bar graph of CD55 surface expression on hMSCs following 24 hr in presence of Atorvastatin (Atr) or Erlotinib (Erl), showing % of CD55+ cells (0-100) for each MSC group Adipose Tissue (AT; red), Bone Marrow (BM; blue), and Umbilical Cord (UC; green), respectively, in the presence of nothing (untreated control) 5 μM Atr, or 5 μM Erl.
as §1
In general terms: Flow cytometry measures light scatter and fluorescence of single cells or particles in a stream.

The structures appear in SMILES notation. “Also recorded” adds a separate entry of the source.

Turning to `C#Cc1cccc(Nc2ncnc3cc(OCCOC)c(OCCOC)cc23)c1` [erlotinib, Erlotinib], in the experiment on CD55 mRNA, the “CD55 mRNA expression of hMSCs compared to untreated control” value was “increased CD55 expression with significance difference in mRNA level compared to untreated control”, the “Dose dependence of CD55 upregulation in hMSCs” value is given as “dose dependent manner” and the “Expression of CD55 on hMSC vs untreated control (mRNA or protein level not specified)” value is “significantly increased of CD55 expression; also recorded: significantly higher expression of CD55 than untreated control”. In the experiment with CD55 surface protein, the “CD55 surface protein level on hMSCs compared with untreated control” value is reported as “significantly upregulated compared with untreated control”.

As to `CC(C)c1c(C(=O)Nc2ccccc2)c(-c2ccccc2)c(-c2ccc(F)cc2)n1CC[C@@H](O)C[C@@H](O)CC(=O)O` [atorvastatin, Atorvastatin], in the experiment on CD55 mRNA, the “CD55 mRNA expression of hMSCs compared to untreated control” value is “increase the expression of CD55 of hMSCs in both mRNA and protein level”; the “Dose dependence of CD55 upregulation in hMSCs” value was “there was not a similar dose dependent relationship”; the “Expression of CD55 on hMSC vs untreated control (mRNA or protein level not specified)” value is on record as “significantly increased of CD55 expression; also recorded: significantly higher expression of CD55 than untreated control”. In addition, the “CD55 surface protein level on hMSCs compared with untreated control” value in the experiment on CD55 surface protein is “increase the expression of CD55 of hMSCs in both mRNA and protein level”.
